The numbers were not newly measured in patent publication US20250282901A1, “POLYMERIC CHELATORS CROSS-LINKED WITH HIGH MOLECULAR WEIGHT CROSS-LINKERS” (THE UNIVERSITY OF KANSAS, priority 2021, published 2025), which cites them from elsewhere.

Each structure is given as a SMILES string.

Regarding `O=C(N[C@H]1COC(=O)[C@@H](NC(=O)c2cccc(O)c2O)COC(=O)[C@@H](NC(=O)c2cccc(O)c2O)COC1=O)c1cccc(O)c1O` [Enterobactin], for the setting “Fe(III)”, the “relative iron binding constant” value is 35.5. For the same compound, the “Log K” value (natural iron chelator) is 52.
